Entries after “also recorded” stand apart in the source; their conditions may differ.
Assays:
[1] = system: cystic fibrosis G542X nonsense mutation; experiment: Readthrough activity in cell-free assay, cystic fibrosis G542X nonsense mutation suppression dose-response; type: biochemical, rabbit; details: concentration range 0-50 μM; for mutation suppression activity (firefly expression and firefly/renilla expression ratio, G542X mutant sequence): FIGS. 4-7; for protein synthesis inhibitory effect (expression levels up or downstream of the WT sequence): FIGS. 4A, 4C, 4E, 6
Method: (§1) The plasmids were transcribed in vitro and translated using rabbit reticulocytes (TNT mix) and then tested for the expression levels of the firefly and renilla luciferases. WT plasmids expressed both firefly and renilla luciferases while mutant plasmids expressed only the renilla luciferase due to the stop codon found in the inserted sequence. The readthrough assays were conducted for the tested compounds and the controls by adding the compounds to the in vitro transcription/translation reaction mixture. In case the compounds exerted suppression of the premature nonsense/stop codon mutation, the firefly luciferase was expressed and a fold-change in its expression was observed.
Readthrough activity of Cystic Fibrosis (CF) mutation G542X was tested using the compounds presented in Table 1, and the mutation suppression was calculated based on firefly/renilla expression ratio values, and normalized with respect to the expression level of the WT and the control sample (no tested compound).

[2] = system: Rett syndrome R168X, R270X and R294X nonsense mutations; experiment: Readthrough activity in cell-free assay, Rett syndrome nonsense mutations suppression; type: biochemical, rabbit; details: 5 μM, FIGS. 8A-C; for firefly/renilla expression ratio compared with the control, wild type cell extracts: WT
Method: as §1
FIGS. 8A-C present the results of Rett syndrome R168X (FIG. 8A), R270X (FIG. 8B) and R294X (FIG. 8C) nonsense mutations suppression cell-free assays conducted for six exemplary compounds according to embodiments of the present invention, NB144, NB145, NB146, NB150, NB151 and NB152, at a concentration of 5 μM. As shown therein, when compared with the control (non-treated cell extracts), the wild type cell extracts are unaffected (approx. 100%); however, in all three Rett syndrome mutation models there is a significant impact of the different treatments on the readthrough activity (>>>100%).

[3] = system: Rett syndrome causing premature stop codon mutations R168X, R270X and R294X; type: cell-based, human; details: offered as explanation of limited readthrough level, 0.3 and 1 mM

## C[C@@H](O)C1O[C@H](O[C@@H]2C(N)C[C@@H](N)C(O)C2O[C@@H]2O[C@H](CNC(=N)N)C(O)C2O)C(N)C(O)[C@@H]1O (stereo in doubt) [NB151]
[1]
  mutation suppression activity (firefly expression and firefly/renilla expression ratio, G542X mutant sequence): notable dose-dependent readthrough activity
[2]
  firefly/renilla expression ratio compared with the control, wild type cell extracts: approx. 100%

## C[C@@H](O)C1O[C@H](O[C@@H]2C(N)CC(NC(=N)N)[C@@H](O)C2O)C(N)[C@H](O)[C@@H]1O (stereo in doubt) [NB150]
[1]
  mutation suppression activity (firefly expression and firefly/renilla expression ratio, G542X mutant sequence): notable dose-dependent readthrough activity
[2]
  firefly/renilla expression ratio compared with the control, wild type cell extracts: approx. 100%

## CCCNC1CC(N)[C@@H](O[C@H]2OC([C@@H](C)O)[C@@H](O)C(O)C2N)C(O)[C@@H]1O (stereo in doubt) [NB146]
[1]
  mutation suppression activity (firefly expression and firefly/renilla expression ratio, G542X mutant sequence): clearly dose-dependent; also recorded: notable dose-dependent readthrough activity
  protein synthesis inhibitory effect (expression levels up or downstream of the WT sequence): more protein synthesis inhibitory effect
[2]
  readthrough activity, comparison in words: better activity compared to NB144 and NB145
  firefly/renilla expression ratio compared with the control, wild type cell extracts: approx. 100%

## CC(C)CNC1CC(N)[C@@H](O[C@H]2OC([C@@H](C)O)[C@@H](O)C(O)C2N)C(O)[C@@H]1O (stereo in doubt) [NB144]
[1]
  mutation suppression activity (firefly expression and firefly/renilla expression ratio, G542X mutant sequence): notable dose-dependent readthrough activity
[2]
  firefly/renilla expression ratio compared with the control, wild type cell extracts: approx. 100%

## C[C@@H](O)C1O[C@H](O[C@@H]2C(N)C[C@@H](NC(=O)C(O)CCN)C(O)C2O[C@@H]2O[C@H](CNC(=N)N)C(O)C2O)C(N)C(O)[C@@H]1O (stereo in doubt) [NB152]
[1]
  mutation suppression activity (firefly expression and firefly/renilla expression ratio, G542X mutant sequence): notable dose-dependent readthrough activity
  protein synthesis inhibitory effect (expression levels up or downstream of the WT sequence): protein synthesis inhibition
[2]
  readthrough activity, comparison in words: higher activity compared to NB150 and NB151
  firefly/renilla expression ratio compared with the control, wild type cell extracts: approx. 100%

## CN[C@@H]1[C@@H](O)[C@@H](O[C@@H]2[C@@H](O)[C@H](O[C@H]3O[C@H]([C@@H](C)O)[C@@H](O)[C@H](O)[C@H]3N)[C@@H](N)C[C@H]2N)OC[C@]1(C)O [Compound G418]
[3]
  cytotoxicity: significant cytotoxicity

## C[C@@H](O)C1O[C@H](O[C@@H]2C(N)CC(NCc3ccccc3)[C@@H](O)C2O)C(N)C(O)[C@@H]1O (stereo in doubt) [NB145]
[1]
  mutation suppression activity (firefly expression and firefly/renilla expression ratio, G542X mutant sequence): notable dose-dependent readthrough activity
[2]
  firefly/renilla expression ratio compared with the control, wild type cell extracts: approx. 100%
